Source: patent US9340590B2 (priority 2011, dated 2016)
Read-outs that look alike come from different tables or passages of the source. Positions of bridges follow the written chain, without caps; N, C: chain ends. Non-standard residues stand in square brackets, D forms with d. Residues, ends and D or L forms follow the SMILES beside them. Abu = CC[C@H](N)C(=O)O

Legend:
Test in all cases: cell-based
hNav1.7 = hNav1.7 (Homo sapiens, UniProt Q15858); assay type: cell-based; conditions: for IC50: IonWorks Quattro, read-out: IWQ Use Nav1.7
hNav1.3 = hNav1.3 (Homo sapiens, UniProt Q9NY46); conditions: for IC50: IonWorks Quattro, read-out: IWQ Use Nav1.3
hNav1.5 = hNav1.5 (Homo sapiens, UniProt Q14524); conditions: IonWorks Quattro, read-out: IWQ Use Nav1.5
hNav1.4 = hNav1.4 (Homo sapiens, UniProt P35499); conditions: IonWorks Quattro, read-out: IWQ Use Nav1.4
[1] = clamped to −110 mV, depolarized to −10 mV, 5 min after compound, n=2

Chain of hNav1.3 (Q9NY46 whole entry, looked up): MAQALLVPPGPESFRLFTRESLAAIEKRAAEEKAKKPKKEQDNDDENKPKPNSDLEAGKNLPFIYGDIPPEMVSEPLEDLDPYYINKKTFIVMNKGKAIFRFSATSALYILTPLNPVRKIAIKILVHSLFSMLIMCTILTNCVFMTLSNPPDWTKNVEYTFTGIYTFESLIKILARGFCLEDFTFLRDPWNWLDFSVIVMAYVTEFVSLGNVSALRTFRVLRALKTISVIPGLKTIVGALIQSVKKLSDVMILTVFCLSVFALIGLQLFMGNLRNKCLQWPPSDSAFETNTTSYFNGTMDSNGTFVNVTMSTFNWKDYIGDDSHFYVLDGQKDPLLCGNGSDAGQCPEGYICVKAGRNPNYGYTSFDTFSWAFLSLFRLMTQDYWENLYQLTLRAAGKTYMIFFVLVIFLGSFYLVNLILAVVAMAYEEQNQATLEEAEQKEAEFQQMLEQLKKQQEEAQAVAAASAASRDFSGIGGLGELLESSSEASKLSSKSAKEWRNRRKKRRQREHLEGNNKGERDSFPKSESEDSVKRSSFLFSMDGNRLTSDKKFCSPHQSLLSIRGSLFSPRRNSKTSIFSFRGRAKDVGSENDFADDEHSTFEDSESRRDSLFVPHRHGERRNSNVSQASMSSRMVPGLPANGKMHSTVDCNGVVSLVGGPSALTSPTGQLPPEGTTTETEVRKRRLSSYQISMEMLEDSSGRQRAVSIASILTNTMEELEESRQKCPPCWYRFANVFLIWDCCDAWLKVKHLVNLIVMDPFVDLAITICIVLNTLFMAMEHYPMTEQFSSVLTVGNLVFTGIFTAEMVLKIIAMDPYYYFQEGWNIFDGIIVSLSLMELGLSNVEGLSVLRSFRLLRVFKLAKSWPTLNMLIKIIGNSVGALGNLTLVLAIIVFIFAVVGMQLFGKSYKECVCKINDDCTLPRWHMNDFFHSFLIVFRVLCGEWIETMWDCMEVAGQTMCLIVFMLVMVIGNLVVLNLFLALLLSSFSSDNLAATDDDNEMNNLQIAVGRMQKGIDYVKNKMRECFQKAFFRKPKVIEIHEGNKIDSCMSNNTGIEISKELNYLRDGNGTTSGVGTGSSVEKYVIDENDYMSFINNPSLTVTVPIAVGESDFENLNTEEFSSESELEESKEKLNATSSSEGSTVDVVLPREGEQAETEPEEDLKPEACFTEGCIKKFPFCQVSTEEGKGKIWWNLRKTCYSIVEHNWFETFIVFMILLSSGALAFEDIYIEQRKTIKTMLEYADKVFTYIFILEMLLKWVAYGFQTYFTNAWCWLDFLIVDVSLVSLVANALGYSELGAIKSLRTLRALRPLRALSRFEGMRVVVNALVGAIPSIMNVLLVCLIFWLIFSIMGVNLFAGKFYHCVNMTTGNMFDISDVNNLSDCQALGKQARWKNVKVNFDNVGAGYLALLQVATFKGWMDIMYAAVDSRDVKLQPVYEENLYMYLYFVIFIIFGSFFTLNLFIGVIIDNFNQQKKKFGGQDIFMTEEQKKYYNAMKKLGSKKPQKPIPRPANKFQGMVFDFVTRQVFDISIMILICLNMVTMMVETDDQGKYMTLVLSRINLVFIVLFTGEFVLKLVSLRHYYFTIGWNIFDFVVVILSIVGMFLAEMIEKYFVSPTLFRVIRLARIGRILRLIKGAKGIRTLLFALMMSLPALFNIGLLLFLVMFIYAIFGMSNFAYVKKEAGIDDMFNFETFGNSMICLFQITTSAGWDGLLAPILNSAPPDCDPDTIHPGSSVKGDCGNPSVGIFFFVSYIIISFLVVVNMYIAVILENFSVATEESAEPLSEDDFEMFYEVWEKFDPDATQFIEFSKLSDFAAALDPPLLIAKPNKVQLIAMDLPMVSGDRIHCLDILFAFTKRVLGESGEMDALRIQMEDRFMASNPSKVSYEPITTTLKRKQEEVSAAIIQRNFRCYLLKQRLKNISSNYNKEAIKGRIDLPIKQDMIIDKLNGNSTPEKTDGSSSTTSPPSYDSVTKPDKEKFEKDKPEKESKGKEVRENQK
Chain of hNav1.7 (Q15858 whole entry, looked up): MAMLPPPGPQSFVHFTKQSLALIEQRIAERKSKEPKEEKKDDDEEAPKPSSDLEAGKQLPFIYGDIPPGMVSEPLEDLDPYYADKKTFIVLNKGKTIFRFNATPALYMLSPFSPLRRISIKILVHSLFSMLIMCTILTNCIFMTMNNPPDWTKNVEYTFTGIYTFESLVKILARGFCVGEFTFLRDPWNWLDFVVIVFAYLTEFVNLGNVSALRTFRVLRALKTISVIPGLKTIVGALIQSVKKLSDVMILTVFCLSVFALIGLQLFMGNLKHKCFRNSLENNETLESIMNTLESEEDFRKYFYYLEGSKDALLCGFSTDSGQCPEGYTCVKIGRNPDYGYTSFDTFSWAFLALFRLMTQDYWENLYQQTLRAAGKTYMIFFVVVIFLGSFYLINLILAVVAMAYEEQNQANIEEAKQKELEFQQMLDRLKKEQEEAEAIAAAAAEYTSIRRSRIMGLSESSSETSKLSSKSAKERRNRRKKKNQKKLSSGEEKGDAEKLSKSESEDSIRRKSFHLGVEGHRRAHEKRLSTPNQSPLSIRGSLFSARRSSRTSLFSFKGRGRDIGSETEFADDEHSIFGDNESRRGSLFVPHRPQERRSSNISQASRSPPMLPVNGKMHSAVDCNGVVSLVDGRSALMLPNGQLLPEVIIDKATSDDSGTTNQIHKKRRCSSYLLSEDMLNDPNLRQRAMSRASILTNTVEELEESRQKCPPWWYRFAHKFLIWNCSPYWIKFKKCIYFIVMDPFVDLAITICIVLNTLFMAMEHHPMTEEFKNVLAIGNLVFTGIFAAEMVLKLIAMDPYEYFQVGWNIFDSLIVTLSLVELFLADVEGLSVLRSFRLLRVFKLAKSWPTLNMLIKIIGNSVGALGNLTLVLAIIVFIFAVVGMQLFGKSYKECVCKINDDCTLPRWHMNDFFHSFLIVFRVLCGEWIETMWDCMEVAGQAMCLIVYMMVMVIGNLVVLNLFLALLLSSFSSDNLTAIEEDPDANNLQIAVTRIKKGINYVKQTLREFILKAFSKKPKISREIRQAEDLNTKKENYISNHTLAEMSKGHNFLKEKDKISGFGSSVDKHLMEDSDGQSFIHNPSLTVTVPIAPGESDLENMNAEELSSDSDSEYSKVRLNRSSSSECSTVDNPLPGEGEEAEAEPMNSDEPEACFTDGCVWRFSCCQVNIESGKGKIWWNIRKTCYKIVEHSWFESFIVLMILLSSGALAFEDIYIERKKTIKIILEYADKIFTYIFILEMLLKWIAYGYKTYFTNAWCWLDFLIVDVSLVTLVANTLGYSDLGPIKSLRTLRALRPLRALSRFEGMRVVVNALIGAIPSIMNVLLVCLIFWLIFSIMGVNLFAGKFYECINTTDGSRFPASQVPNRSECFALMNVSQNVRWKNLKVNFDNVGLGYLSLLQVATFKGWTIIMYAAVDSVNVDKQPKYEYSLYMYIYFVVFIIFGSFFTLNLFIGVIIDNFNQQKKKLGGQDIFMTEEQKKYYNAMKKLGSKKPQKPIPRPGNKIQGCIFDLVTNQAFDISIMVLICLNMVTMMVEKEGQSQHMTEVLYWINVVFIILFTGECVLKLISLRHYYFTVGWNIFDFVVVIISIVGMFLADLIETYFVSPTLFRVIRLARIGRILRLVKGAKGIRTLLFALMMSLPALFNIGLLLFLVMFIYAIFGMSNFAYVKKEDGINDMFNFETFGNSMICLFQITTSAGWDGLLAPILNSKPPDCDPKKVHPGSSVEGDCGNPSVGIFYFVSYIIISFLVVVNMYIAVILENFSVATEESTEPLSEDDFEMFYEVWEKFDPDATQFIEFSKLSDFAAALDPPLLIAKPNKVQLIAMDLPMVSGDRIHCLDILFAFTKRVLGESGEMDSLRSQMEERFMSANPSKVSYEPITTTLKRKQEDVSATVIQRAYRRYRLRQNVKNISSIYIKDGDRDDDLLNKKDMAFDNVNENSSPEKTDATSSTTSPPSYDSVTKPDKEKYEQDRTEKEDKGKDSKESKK

Work on `CC(C)C[C@H](NC(=O)[C@H](CCCCN)NC(=O)[C@H](Cc1ccc(O)cc1)NC(=O)[C@H](CCCCN)NC(=O)[C@@H]1CSSC[C@@H]2NC(=O)[C@H](CCCCN)NC(=O)[C@H](CC(=O)O)NC(=O)[C@H](CC(N)=O)NC(=O)[C@H](CC(=O)O)NC(=O)[C@@H]3CCCN3C(=O)[C@H](CC(=O)O)NC(=O)[C@@H]3CSSC[C@H](NC(=O)[C@H](CCCCN)NC(=O)[C@H](Cc4ccc(O)cc4)NC(=O)[C@H](CC(N)=O)NC(=O)[C@H](CCC(=O)O)NC(=O)[C@H](CSSC[C@H](NC(=O)[C@@H](N)CC(=O)O)C(=O)N[C@@H](CC(C)C)C(=O)NCC(=O)N[C@@H](Cc4c[nH]c5ccccc45)C(=O)N[C@@H](Cc4ccccc4)C(=O)N[C@@H](CCCCN)C(=O)NCC(=O)N3)NC2=O)C(=O)N[C@@H](CC(N)=O)C(=O)N[C@@H](CCCNC(=N)N)C(=O)N[C@@H](CCCNC(=N)N)C(=O)N[C@@H](CCC(=O)O)C(=O)N[C@@H](CCC(N)=O)C(=O)N[C@@H](Cc2c[nH]c3ccccc23)C(=O)N1)C(N)=O` [SEQ ID NO: 469] (H-DCLGWFKGCDPDNDKCCENYKCNRREQWCKYKL-NH2; disulfide 2-17, 9-22, 16-29) yielded an IC50 (hNav1.7; [1]) of 9.25 µM, an IC50 (hNav1.3; [1]) of 4.92 µM and an IC50 (hNav1.5; [1]) of 10.4 µM. The IC50 (hNav1.4; [1]) was 11 µM.

Compound `CC[C@@H]1NC(=O)[C@@H]2CSSC[C@@H](C(=O)N[C@@H](CCCCN)C(=O)N[C@@H](Cc3ccc(O)cc3)C(=O)N[C@H](C(=O)N[C@@H](Cc3ccccc3)C(N)=O)C(C)C)NC(=O)[C@H](Cc3c[nH]c4ccccc34)NC(=O)[C@H](CCC(=O)O)NC(=O)[C@H](Cc3c[nH]cn3)NC(=O)[C@H]([C@@H](C)O)NC(=O)[C@H](CCCNC(=N)N)NC(=O)[C@H](CO)NC(=O)[C@H](CSSC[C@H](NC(=O)[C@H](CCCCN)NC(=O)[C@H](CCCNC(=N)N)NC(=O)[C@H](CC(C)C)NC(=O)[C@@H](NC(=O)CNC(=O)[C@H](CC(C)C)NC(=O)[C@H](CC)NC(=O)[C@@H](N)CC(=O)O)C(C)C)C(=O)N[C@@H]([C@@H](C)CC)C(=O)N3CCC[C@H]3C(=O)N[C@@H](CC(=O)O)C(=O)N[C@@H](CC(N)=O)C(=O)N[C@@H](CC(=O)O)C(=O)N[C@@H](CCCCN)C(=O)N2)NC(=O)[C@H](C(C)C)NC(=O)[C@H](CC(C)C)NC(=O)[C@H](CC(N)=O)NC(=O)[C@@H]2CCCN2C(=O)[C@H](CCCNC(=N)N)NC1=O` [compound 720] (H-D[Abu]LGVLRKCIPDNDKC[Abu]RPNLVCSRTHEWCKYVF-NH2; disulfide 9-23, 16-30) has an IC50 (hNav1.7; use-dependent block, hNav1.7) greater than 5 µM, an IC50 (hNav1.3; use-dependent block, hNav1.3) greater than 5 µM and an IC50 (hNav1.5; use-dependent block, hNav1.5) of 33 µM. It also gave an IC50 (hNav1.4; use-dependent block, hNav1.4) greater than 50 µM.

Work on `CC(C)C[C@@H]1NC(=O)[C@@H](NC(=O)[C@@H](N)CC(=O)O)CSSC[C@@H]2NC(=O)[C@@H]3CSSC[C@@H](C(=O)N[C@@H](CCCCN)C(=O)N[C@@H](Cc4ccc(O)cc4)C(=O)N[C@@H](CCCCN)C(=O)N[C@@H](CC(C)C)C(=O)N[C@@H](Cc4c[nH]c5ccccc45)C(=O)O)NC(=O)[C@H](Cc4c[nH]c5ccccc45)NC(=O)[C@H](CCCCN)NC(=O)[C@H](CC(=O)O)NC(=O)[C@H](CCCNC(=N)N)NC(=O)[C@H](CCCNC(=N)N)NC(=O)[C@H](CC(N)=O)NC(=O)[C@H](CSSC[C@H](NC(=O)CNC(=O)[C@H](CCCCN)NC(=O)[C@H](Cc4ccccc4)NC(=O)[C@H](Cc4c[nH]c5ccccc45)NC(=O)CNC1=O)C(=O)N[C@@H](CC(=O)O)C(=O)N1CCC[C@H]1C(=O)N[C@@H](CC(=O)O)C(=O)N[C@@H](CC(N)=O)C(=O)N[C@@H](CC(=O)O)C(=O)N[C@@H](CCCCN)C(=O)N3)NC(=O)[C@H](CCCCN)NC(=O)[C@H](Cc1ccc(O)cc1)NC(=O)[C@H](CC(N)=O)NC(=O)[C@H](CCC(=O)O)NC2=O` [SEQ ID NO: 474] (H-DCLGWFKGCDPDNDKCCENYKCNRRDKWCKYKLW-OH; disulfide 2-17, 9-22, 16-29) yielded an IC50 (hNav1.7; [1]) of 4 µM, an IC50 (hNav1.3; [1]) of 1.4 µM and an IC50 (hNav1.5; [1]) of 7.9 µM. The IC50 (hNav1.4; [1]) was 10.5 µM.

For `CC[C@H](C)[C@@H]1NC(=O)[C@@H]2CSSC[C@@H]3NC(=O)[C@H](C(C)C)NC(=O)[C@H](CC(C)C)NC(=O)[C@H](CC(N)=O)NC(=O)[C@@H]4CCCN4C(=O)[C@H](CCCNC(=N)N)NC(=O)[C@H](CSSC[C@H](NC(=O)[C@H](CC(=O)O)NC(=O)[C@H](CO)NC(=O)CN)C(=O)N[C@@H](CC(C)C)C(=O)NCC(=O)N[C@@H](C)C(=O)N[C@@H](CC(C)C)C(=O)N[C@@H](CCCNC(=N)N)C(=O)N[C@@H](CCCCN)C(=O)N2)NC(=O)[C@H](CSSC[C@@H](C(=O)N[C@@H](CCCCN)C(=O)N[C@@H](Cc2ccc(O)cc2)C(=O)N[C@H](C(=O)N[C@@H](Cc2ccccc2)C(=O)N[C@@H](Cc2c[nH]c4ccccc24)C(=O)O)C(C)C)NC(=O)[C@H](Cc2c[nH]c4ccccc24)NC(=O)[C@H](CCCNC(=N)N)NC(=O)[C@H](Cc2c[nH]cn2)NC(=O)[C@H]([C@@H](C)O)NC(=O)[C@H](CCCNC(=N)N)NC(=O)[C@H](CO)NC3=O)NC(=O)[C@H](CCCCN)NC(=O)[C@H](CC(=O)O)NC(=O)[C@H](CC(N)=O)NC(=O)[C@H](CC(=O)O)NC(=O)[C@@H]2CCCN2C1=O` [compound 816] (H-GSDCLGALRKCIPDNDKCCRPNLVCSRTHRWCKYVFW-OH; disulfide 4-19, 11-25, 18-32), the IC50 (hNav1.7; use-dependent block, hNav1.7) was greater than 5 µM, the IC50 (hNav1.3; use-dependent block, hNav1.3) was greater than 5 µM and the IC50 (hNav1.5; use-dependent block, hNav1.5) was greater than 5 µM. The IC50 (hNav1.4; use-dependent block, hNav1.4) was greater than 5 µM.

Work on `CC(C)C[C@@H]1NC(=O)[C@@H](NC(=O)[C@@H](N)CC(=O)O)CSSC[C@@H]2NC(=O)[C@@H]3CSSC[C@@H](C(=O)N[C@@H](CCCCN)C(=O)N[C@@H](Cc4ccc(O)cc4)C(=O)N[C@@H](CCCCN)C(=O)N[C@@H](CC(C)C)C(=O)N[C@@H](Cc4c[nH]c5ccccc45)C(=O)N[C@@H](CCCCN)C(=O)O)NC(=O)[C@H](Cc4c[nH]c5ccccc45)NC(=O)[C@H](CCCCN)NC(=O)[C@H](CC(=O)O)NC(=O)[C@H](CCCNC(=N)N)NC(=O)[C@H](CCCNC(=N)N)NC(=O)[C@H](CC(N)=O)NC(=O)[C@H](CSSC[C@H](NC(=O)CNC(=O)[C@H](CCCCN)NC(=O)[C@H](Cc4ccccc4)NC(=O)[C@H](Cc4c[nH]c5ccccc45)NC(=O)CNC1=O)C(=O)N[C@@H](CC(=O)O)C(=O)N1CCC[C@H]1C(=O)N[C@@H](CC(=O)O)C(=O)N[C@@H](CC(N)=O)C(=O)N[C@@H](CC(=O)O)C(=O)N[C@@H](CCCCN)C(=O)N3)NC(=O)[C@H](CCCCN)NC(=O)[C@H](Cc1ccc(O)cc1)NC(=O)CNC(=O)[C@H](CCC(=O)O)NC2=O` [compound 471] (H-DCLGWFKGCDPDNDKCCEGYKCNRRDKWCKYKLWK-OH; disulfide 2-17, 9-22, 16-29) yielded an IC50 (hNav1.7; use-dependent block, hNav1.7) of 9.6 µM, a Nav1.4/Nav1.7 (hNav1.7; ratio of IWQ Use values, Nav1.4 over Nav1.7) of 1.8 and an IC50 (hNav1.3; use-dependent block, hNav1.3) of 1.7 µM. The Nav1.4/Nav1.3 (hNav1.3; ratio of IWQ Use values, Nav1.4 over Nav1.3) was 10.0, the Nav1.7/Nav1.3 (hNav1.3; ratio of IWQ Use values, Nav1.7 over Nav1.3) was 5.5 and the IC50 (hNav1.5; use-dependent block, hNav1.5) was 14.6 µM. The IC50 (hNav1.4; use-dependent block, hNav1.4) was 17.4 µM.
